Measurements reported in US8192962B2, “Processes for detecting toxic substances” (Daikin Industries, Ltd., priority 2001, dated 2012).

Test system: Transport facilitation protein genes
Experiment: DNA chip mRNA expression in yeast, transport facilitation protein genes (Table 5)
Format: cell-based, Saccharomyces cerevisiae S288C
Outline: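 S. cerevisiae S288C grown at 25° C. in YPD to log phase, then exposed 2 h to a toxicant at a growth-inhibiting, non-lethal concentration; untreated cells as control. Poly(A) mRNA reverse-transcribed with Cy3-dUTP or Cy5-dUTP, hybridized >12 h at 65° C. to whole-genome yeast DNA chip; value = fluorescence ratio treated/untreated.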

N#Cc1c(Cl)c(Cl)c(Cl)c(C#N)c1Cl [(9), 2,4,5,6-tetrachloro-1,3-benzenedicarbonitrile]
The level of expressed mRNA in the presence of chemical substance/The level of expressed mRNA in the absence of chemical substance (yeast gene YGR260W): 0.3
The level of expressed mRNA in the presence of chemical substance/The level of expressed mRNA in the absence of chemical substance (yeast gene YGR281W): 2.7
The level of expressed mRNA in the presence of chemical substance/The level of expressed mRNA in the absence of chemical substance (yeast gene YHL035C): 0.6
The level of expressed mRNA in the presence of chemical substance/The level of expressed mRNA in the absence of chemical substance (yeast gene YHL040C): 1.1
The level of expressed mRNA in the presence of chemical substance/The level of expressed mRNA in the absence of chemical substance (yeast gene YHL047C): 1.2
The level of expressed mRNA in the presence of chemical substance/The level of expressed mRNA in the absence of chemical substance (yeast gene YHR026W): 1.1
The level of expressed mRNA in the presence of chemical substance/The level of expressed mRNA in the absence of chemical substance (yeast gene YHR092C): 0.2
The level of expressed mRNA in the presence of chemical substance/The level of expressed mRNA in the absence of chemical substance (yeast gene YHR094C): 0.3
The level of expressed mRNA in the presence of chemical substance/The level of expressed mRNA in the absence of chemical substance (yeast gene YHR175W): 0.6
The level of expressed mRNA in the presence of chemical substance/The level of expressed mRNA in the absence of chemical substance (yeast gene YIL006W): 0.9
The level of expressed mRNA in the presence of chemical substance/The level of expressed mRNA in the absence of chemical substance (yeast gene YIL022W): 1.1
The level of expressed mRNA in the presence of chemical substance/The level of expressed mRNA in the absence of chemical substance (yeast gene YIL056W): 1.2
The level of expressed mRNA in the presence of chemical substance/The level of expressed mRNA in the absence of chemical substance (yeast gene YIL088C): 1.0
The level of expressed mRNA in the presence of chemical substance/The level of expressed mRNA in the absence of chemical substance (yeast gene YJL034W): 2.8
The level of expressed mRNA in the presence of chemical substance/The level of expressed mRNA in the absence of chemical substance (yeast gene YJL212C): 1.1
The level of expressed mRNA in the presence of chemical substance/The level of expressed mRNA in the absence of chemical substance (yeast gene YJL219W): 4.0
The level of expressed mRNA in the presence of chemical substance/The level of expressed mRNA in the absence of chemical substance (yeast gene YJR077C): 0.4
The level of expressed mRNA in the presence of chemical substance/The level of expressed mRNA in the absence of chemical substance (yeast gene YJR106W): 2.0
The level of expressed mRNA in the presence of chemical substance/The level of expressed mRNA in the absence of chemical substance (yeast gene YJR121W): 0.8
The level of expressed mRNA in the presence of chemical substance/The level of expressed mRNA in the absence of chemical substance (yeast gene YKL016C): 1.3
The level of expressed mRNA in the presence of chemical substance/The level of expressed mRNA in the absence of chemical substance (yeast gene YKL146W): 4.6
The level of expressed mRNA in the presence of chemical substance/The level of expressed mRNA in the absence of chemical substance (yeast gene YKR039W): 1.9
The level of expressed mRNA in the presence of chemical substance/The level of expressed mRNA in the absence of chemical substance (yeast gene YKR067W): 1.6
The level of expressed mRNA in the presence of chemical substance/The level of expressed mRNA in the absence of chemical substance (yeast gene YKR105C): 1.0
The level of expressed mRNA in the presence of chemical substance/The level of expressed mRNA in the absence of chemical substance (yeast gene YLL028W): 1.2
The level of expressed mRNA in the presence of chemical substance/The level of expressed mRNA in the absence of chemical substance (yeast gene YLR081W): 0.1
The level of expressed mRNA in the presence of chemical substance/The level of expressed mRNA in the absence of chemical substance (yeast gene YLR295C): 1.4
The level of expressed mRNA in the presence of chemical substance/The level of expressed mRNA in the absence of chemical substance (yeast gene YLR348C): 2.1
The level of expressed mRNA in the presence of chemical substance/The level of expressed mRNA in the absence of chemical substance (yeast gene YLR378C): 1.1
The level of expressed mRNA in the presence of chemical substance/The level of expressed mRNA in the absence of chemical substance (yeast gene YMR011W): 0.0
The level of expressed mRNA in the presence of chemical substance/The level of expressed mRNA in the absence of chemical substance (yeast gene YMR162C): 0.7
The level of expressed mRNA in the presence of chemical substance/The level of expressed mRNA in the absence of chemical substance (yeast gene YMR203W): 0.7
The level of expressed mRNA in the presence of chemical substance/The level of expressed mRNA in the absence of chemical substance (yeast gene YNL055C): 1.1
The level of expressed mRNA in the presence of chemical substance/The level of expressed mRNA in the absence of chemical substance (yeast gene YNL259C): 1.6
The level of expressed mRNA in the presence of chemical substance/The level of expressed mRNA in the absence of chemical substance (yeast gene YNR072W): 0.7
The level of expressed mRNA in the presence of chemical substance/The level of expressed mRNA in the absence of chemical substance (yeast gene YOL119C): 5.0
The level of expressed mRNA in the presence of chemical substance/The level of expressed mRNA in the absence of chemical substance (yeast gene YOL156W): 2.3
The level of expressed mRNA in the presence of chemical substance/The level of expressed mRNA in the absence of chemical substance (yeast gene YOL163W): 7.5
The level of expressed mRNA in the presence of chemical substance/The level of expressed mRNA in the absence of chemical substance (yeast gene YOR035C): 1.3
The level of expressed mRNA in the presence of chemical substance/The level of expressed mRNA in the absence of chemical substance (yeast gene YOR130C): 2.0
The level of expressed mRNA in the presence of chemical substance/The level of expressed mRNA in the absence of chemical substance (yeast gene YOR153W): 3.2
The level of expressed mRNA in the presence of chemical substance/The level of expressed mRNA in the absence of chemical substance (yeast gene YOR270C): 0.4
The level of expressed mRNA in the presence of chemical substance/The level of expressed mRNA in the absence of chemical substance (yeast gene YOR273C): 0.6
The level of expressed mRNA in the presence of chemical substance/The level of expressed mRNA in the absence of chemical substance (yeast gene YOR316C): 1.6
The level of expressed mRNA in the presence of chemical substance/The level of expressed mRNA in the absence of chemical substance (yeast gene YOR332W): 1.8
The level of expressed mRNA in the presence of chemical substance/The level of expressed mRNA in the absence of chemical substance (yeast gene YOR348C): 0.5
The level of expressed mRNA in the presence of chemical substance/The level of expressed mRNA in the absence of chemical substance (yeast gene YPL036W): 0.1
The level of expressed mRNA in the presence of chemical substance/The level of expressed mRNA in the absence of chemical substance (yeast gene YPL134C): 0.6
The level of expressed mRNA in the presence of chemical substance/The level of expressed mRNA in the absence of chemical substance (yeast gene YPL265W): 0.2
The level of expressed mRNA in the presence of chemical substance/The level of expressed mRNA in the absence of chemical substance (yeast gene YPL271W): 0.6
The level of expressed mRNA in the presence of chemical substance/The level of expressed mRNA in the absence of chemical substance (yeast gene YPR192W): 0.7
The level of expressed mRNA in the presence of chemical substance/The level of expressed mRNA in the absence of chemical substance (yeast gene YPR194C): 0.5
